Assay results from patent publication US4619938A, “Fatty acid derivatives of aminoalkyl nicotinic acid esters and platelet aggregation inhibitors” (Terumo Kabushiki Kaisha, priority 1984, dated 1986).
Like-named read-outs stand apart in the source and are kept apart here.

Key:
[1] = system: platelet aggregation caused by arachidonic acid (platelet-rich plasma); test: Platelet aggregation-inhibitory action, arachidonic acid (100 μM) induced, Born's turbidometric method; format: cell-based, rabbit; details: Oryctolagus cuniculus, 0.05 h, read-out: 50% inhibitory concentration, Arachidonic acid
Method: (§1) Blood was drawn from the carotid artery of a rabbit using a syringe containing 3.8% solution of sodium citrate in an amount of […] per volume of the solution. The blood was centrifuged to obtain platelet-rich plasma (PRP: 5×10^5 platelets/μl).
(§2) In a cuvette was placed 250 μl of the PRP, which is warmed in a constant-temperature bath at 37° C. for 2 min. To the warmed cuvette was added 20 μl of a solution of an alkanolamine derivative to be tested (a […] ethanol solution which had been diluted with Trisbuffered isotonic saline solution). The mixture was then incubated for 3 min., followed by addition of a aggregation inducer, an arachidonic acid solution or a collagen solution. Measurement of the platelet aggregation was made by Born's turbidometric method (e.g., described in J. Physiol., Vol. 168, P. 178, 1968). The 50% inhibitory concentration for the platelet aggregation caused by arachidonic acid (100 μM) or collagen (20 μg/ml) is given in Table 1 with reference to Aspirin for comparison.
(§3) The 50% inhibitory concentration as shown in the table means the concentration of an alkanolamine derivative required for inhibiting aggregation ability of the platelets to 50% when the aggregation ability of the platelets in the absence of the alkanolamine derivative of the invention is taken as 100%.

[2] = system: platelet aggregation caused by collagen (platelet-rich plasma); test: Platelet aggregation-inhibitory action, collagen (20 μg/ml) induced, Born's turbidometric method; format: cell-based, rabbit; details: Oryctolagus cuniculus, 0.05 h, read-out: 50% inhibitory concentration, Collagen
Method: as §1, §2, §3

[3] = rabbit PRP, 37° C., 3 min. incubation, arachidonic acid 100 μM
[4] = rabbit PRP, 37° C., 3 min. incubation, collagen 20 μg/ml

Row | Compound | IC50 [1] | IC50 [2] | IC50 [1, 3] | IC50 [2, 4]
1 | CC(=O)Oc1ccccc1C(=O)O [Aspirin, reference compound] | 14 µM | 13.6 µM | – | –
2 | CC/C=C\C/C=C\C/C=C\C/C=C\C/C=C\CCCC(=O)NCCO [Example 1, N-5,8,11,14,17-eicosapentaenoyl-2-aminoethanol] | – | – | 22 µM | 98 µM
3 | CC/C=C\C/C=C\C/C=C\C/C=C\C/C=C\CCCC(=O)OCCNC(=O)c1cccnc1 [Example 2, N-nicotinoyl-2-aminoethyl 5,8,11,14,17-eicosapentaenoate] | – | – | 11 µM | 93 µM
4 | CC/C=C\C/C=C\C/C=C\CCCCCCCC(=O)OCCNC(=O)c1cccnc1 [Example 3, N-nicotinoyl-2-aminoethyl 9,12,15-octadecatrienoate] | – | – | 49 µM | 140 µM
5 | CCCCC/C=C\C/C=C\C/C=C\CCCCC(=O)OCCNC(=O)c1cccnc1 [Example 4, N-nicotinoyl-2-aminoethyl 6,9,12-octadecatrienoate] | – | – | 36 µM | 190 µM
6 | CC/C=C\C/C=C\C/C=C\C/C=C\C/C=C\CCCC(=O)NCCOC(=O)c1cccnc1 [Example 5, N-5,8,11,14,17-eicosapentaenoyl-2-aminoethyl nicotinate] | – | – | 8.8 µM | 90 µM
7 | CC/C=C\C/C=C\C/C=C\C/C=C\C/C=C\CCCC(=O)N(CC)CCO [Example 6, N-ethyl-N-5,8,11,14,17-eicosapentaenoyl-2-aminoethanol] | – | – | 3.57 µM | 273 µM
8 | CC/C=C\C/C=C\C/C=C\C/C=C\C/C=C\CCCC(=O)N(CCO)CCCC [Example 7, N-butyl-N-5,8,11,14,17-eicosapentaenoyl-2-aminoethanol] | – | – | 3.55 µM | 187 µM
9 | CC/C=C\C/C=C\C/C=C\C/C=C\C/C=C\CCCC(=O)N(C)CCOC(=O)c1cccnc1 [Example 8, N-methyl-N-5,8,11, 14,17-eicosapentaenoyl-2-aminoethylnicotinate] | – | – | 6.62 µM | 111 µM
10 | CC/C=C\C/C=C\C/C=C\CCCCCCCC(=O)N(C)CCOC(=O)c1cccnc1 [Example 9, N-methyl-N-9,12,15-octadecatrienoyl-2-aminoethylnicotinate] | – | – | 8.24 µM | 273 µM
11 | CC/C=C\C/C=C\C/C=C\C/C=C\C/C=C\CCCC(=O)N(CC)CCOC(=O)c1cccnc1 [Example 10, N-ethyl-N-5,8,11,14,17-eicosapentaenoyl-2-aminoethylnicotinate] | – | – | 4.99 µM | 91.7 µM
12 | CC/C=C\C/C=C\C/C=C\C/C=C\C/C=C\CCCC(=O)N(CCCC)CCOC(=O)c1cccnc1 [Example 11, N-butyl-N-5,8,11,14,17-eicosapentaenoyl-2-aminoethylnicotinate] | – | – | 6.03 µM | 197 µM
13 | CC/C=C\C/C=C\C/C=C\C/C=C\C/C=C\CCCC(=O)NCCCOC(=O)c1cccnc1 [Example 12, N-5,8,11,14,17-eicosapentaenoyl-3-aminopropylnicotinate] | – | – | 3.44 µM | 55.3 µM
14 | CC/C=C\C/C=C\C/C=C\C/C=C\C/C=C\CCCC(=O)OCCN(CC)C(=O)c1cccnc1 [Example 13, (N-ethyl-N-nicotinoyl-2-aminoethyl)-5,8,11,14,17-eicosapentaenoate] | – | – | 255 µM | 401 µM
15 | CC/C=C\C/C=C\C/C=C\C/C=C\C/C=C\CCCC(=O)N(C)CCOCc1cccnc1 [Example 14, [N-methyl-N-(5,8,11,14,17-eicosapentaenoyl)-2-aminoethyl]-β-picolylether] | – | – | 5.68 µM | 50.1 µM
16 | CC/C=C\C/C=C\C/C=C\C/C=C\C/C=C\CCCC(=O)N(CCCC)CCOCc1cccnc1 [Example 15] | – | – | 7.07 µM | 123 µM
17 | CC/C=C\C/C=C\C/C=C\C/C=C\C/C=C\CCCC(=O)NCCOCc1cccnc1 [Example 16, (N-5,8,11,14,17-eicosapentaenoyl)-2-aminoethyl β-picolyl ether] | – | – | 5.68 µM | 50.1 µM
18 | CC/C=C\C/C=C\C/C=C\CCCCCCCC(=O)NCCCOCc1cccnc1 [Example 17, (N-9,12,15-octadecatrienoyl)-3-aminopropyl β-picolylether] | – | – | 7.07 µM | 123 µM
